# Tests used:
# Rho kinase 1 (ROCK-I) = Rho kinase 1 (ROCK-I) (Homo sapiens, UniProt Q13464); test: In vitro Rho kinase inhibitory activity assay (ADP-Glo), Rho kinase 1; assay type: biochemical; conditions: 10 μM ATP, 25° C., expressed as range of activity
# In short: (§1)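 Each kinase (ROCK1 or ROCK2) sat with compound for 30 min at 25 °C before 10 μM ATP started a 1 h reaction on 2.5 μM myelin basic protein (Tris pH 7.5, MgCl2, BSA, DTT, 1% DMSO). ADP formed was read by ADP-Glo luminescence. Dose-response IC50s were converted to Ki by Cheng-Prusoff.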
# Rho kinase 2 (ROCK-II) = Rho kinase 2 (ROCK-II) (Homo sapiens, UniProt O75116); test: In vitro Rho kinase inhibitory activity assay (ADP-Glo), Rho kinase 2; assay type: biochemical; conditions: 10 μM ATP, 25° C., expressed as range of activity
# In short: as §1
# Sequence of Rho kinase 2 (ROCK-II) (O75116 whole entry): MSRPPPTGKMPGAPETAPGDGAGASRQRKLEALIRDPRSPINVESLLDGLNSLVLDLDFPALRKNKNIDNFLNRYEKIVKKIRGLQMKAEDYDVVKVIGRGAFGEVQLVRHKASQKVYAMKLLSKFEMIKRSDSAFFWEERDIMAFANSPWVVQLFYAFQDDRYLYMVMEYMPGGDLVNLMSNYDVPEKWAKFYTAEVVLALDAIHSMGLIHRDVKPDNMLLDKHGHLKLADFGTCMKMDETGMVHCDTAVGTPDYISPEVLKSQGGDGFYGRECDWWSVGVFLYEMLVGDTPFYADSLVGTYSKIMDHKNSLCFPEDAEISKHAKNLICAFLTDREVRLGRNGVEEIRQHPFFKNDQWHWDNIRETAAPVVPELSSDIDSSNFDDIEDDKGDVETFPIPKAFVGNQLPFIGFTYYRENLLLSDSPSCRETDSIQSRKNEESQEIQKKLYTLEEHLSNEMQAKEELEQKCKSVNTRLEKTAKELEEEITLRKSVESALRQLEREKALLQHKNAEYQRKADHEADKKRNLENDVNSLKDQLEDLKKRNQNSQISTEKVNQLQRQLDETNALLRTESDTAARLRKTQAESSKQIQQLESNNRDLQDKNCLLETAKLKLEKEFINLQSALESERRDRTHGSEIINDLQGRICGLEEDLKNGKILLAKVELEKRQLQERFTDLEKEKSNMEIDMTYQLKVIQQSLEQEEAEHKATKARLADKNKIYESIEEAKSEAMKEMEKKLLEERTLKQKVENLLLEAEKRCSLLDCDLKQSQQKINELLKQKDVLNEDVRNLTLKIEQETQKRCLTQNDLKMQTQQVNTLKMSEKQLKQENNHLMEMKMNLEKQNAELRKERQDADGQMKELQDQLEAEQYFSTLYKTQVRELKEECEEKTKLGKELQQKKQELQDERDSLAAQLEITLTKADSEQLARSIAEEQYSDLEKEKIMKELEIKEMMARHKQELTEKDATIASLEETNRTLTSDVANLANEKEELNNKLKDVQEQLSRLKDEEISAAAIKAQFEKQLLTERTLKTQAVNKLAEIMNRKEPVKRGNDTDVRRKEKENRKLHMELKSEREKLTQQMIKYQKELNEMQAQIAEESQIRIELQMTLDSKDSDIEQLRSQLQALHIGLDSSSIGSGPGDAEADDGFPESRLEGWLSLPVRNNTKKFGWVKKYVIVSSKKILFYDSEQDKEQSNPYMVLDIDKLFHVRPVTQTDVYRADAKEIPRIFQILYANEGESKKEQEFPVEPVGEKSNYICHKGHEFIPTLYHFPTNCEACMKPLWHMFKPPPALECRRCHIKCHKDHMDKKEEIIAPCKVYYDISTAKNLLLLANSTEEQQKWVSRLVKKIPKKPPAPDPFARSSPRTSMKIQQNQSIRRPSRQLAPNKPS
# Sequence of Rho kinase 1 (ROCK-I) (Q13464 whole entry): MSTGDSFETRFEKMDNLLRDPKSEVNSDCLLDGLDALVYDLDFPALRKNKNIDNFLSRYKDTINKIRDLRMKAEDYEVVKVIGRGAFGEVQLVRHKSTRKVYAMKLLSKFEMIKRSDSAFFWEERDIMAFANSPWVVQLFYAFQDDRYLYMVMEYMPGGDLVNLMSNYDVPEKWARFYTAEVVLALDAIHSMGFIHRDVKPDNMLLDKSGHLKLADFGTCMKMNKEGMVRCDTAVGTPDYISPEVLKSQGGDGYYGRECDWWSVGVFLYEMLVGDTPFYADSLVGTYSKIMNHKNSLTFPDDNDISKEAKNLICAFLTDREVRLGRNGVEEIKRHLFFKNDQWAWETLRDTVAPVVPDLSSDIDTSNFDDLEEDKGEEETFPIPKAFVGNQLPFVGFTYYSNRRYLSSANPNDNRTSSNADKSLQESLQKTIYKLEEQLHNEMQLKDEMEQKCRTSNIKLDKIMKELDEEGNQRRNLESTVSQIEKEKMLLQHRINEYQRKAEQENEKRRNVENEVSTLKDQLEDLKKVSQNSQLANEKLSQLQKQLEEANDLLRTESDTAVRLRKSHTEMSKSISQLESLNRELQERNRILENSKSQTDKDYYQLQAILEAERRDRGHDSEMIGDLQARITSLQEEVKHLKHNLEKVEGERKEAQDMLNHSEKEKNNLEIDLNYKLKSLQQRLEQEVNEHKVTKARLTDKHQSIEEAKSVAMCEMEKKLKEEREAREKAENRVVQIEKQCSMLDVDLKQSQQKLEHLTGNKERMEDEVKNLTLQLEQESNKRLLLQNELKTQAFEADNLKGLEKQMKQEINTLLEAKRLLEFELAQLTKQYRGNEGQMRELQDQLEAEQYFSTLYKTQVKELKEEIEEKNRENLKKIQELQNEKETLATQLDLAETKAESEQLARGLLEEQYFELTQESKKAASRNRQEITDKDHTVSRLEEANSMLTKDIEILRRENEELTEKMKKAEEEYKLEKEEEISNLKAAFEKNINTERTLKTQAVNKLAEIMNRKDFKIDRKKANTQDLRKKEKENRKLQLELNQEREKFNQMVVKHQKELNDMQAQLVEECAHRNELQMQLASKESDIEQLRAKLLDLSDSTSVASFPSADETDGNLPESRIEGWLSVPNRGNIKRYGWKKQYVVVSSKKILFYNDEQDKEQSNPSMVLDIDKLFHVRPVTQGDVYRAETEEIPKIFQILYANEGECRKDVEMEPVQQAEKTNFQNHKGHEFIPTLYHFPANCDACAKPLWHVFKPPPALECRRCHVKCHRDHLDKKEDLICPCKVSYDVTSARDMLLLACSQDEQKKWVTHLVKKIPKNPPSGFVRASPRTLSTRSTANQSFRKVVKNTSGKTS
Ki (Rho kinase 1 (ROCK-I)),Ki (Rho kinase 2 (ROCK-II)),Structure (SMILES)
> 30 nM,> 30 nM,"CN(C)CCNC(=O)[C@@H](N)Cc1ccc(Oc2ccnc3[nH]ccc23)cc1 [Example 95, (S)-3-(4-((1H-pyrrolo[2,3-b]pyridin-4-yl)oxy)phenyl)-2-amino-N-(2-(dimethylamino)ethyl)propanamide]"
> 30 nM,> 30 nM,"CN(C)CCNC(=O)[C@H](N)Cc1ccc(Oc2ccnc3[nH]ccc23)cc1 [Example 96, (R)-3-(4-((1H-pyrrolo[2,3-b]pyridin-4-yl)oxy)phenyl)-2-amino-N-(2-(dimethylamino)ethyl)propanamide]"
3 to 30 nM,3 to 30 nM,"N[C@@H](Cc1ccc(Oc2ccnc3[nH]ccc23)cc1)C(=O)NCc1ccccc1 [Example 97, (S)-3-(4-((1H-pyrrolo[2,3-b]pyridin-4-yl)oxy)phenyl)-2-amino-N-benzylpropanamide]"
> 30 nM,> 30 nM,"N[C@H](Cc1ccc(Oc2ccnc3[nH]ccc23)cc1)C(=O)NCc1ccccc1 [Example 98, (R)-3-(4-((1H-pyrrolo[2,3-b]pyridin-4-yl)oxy)phenyl)-2-amino-N-benzylpropanamide]"
3 to 30 nM,3 to 30 nM,"N[C@@H](Cc1ccc(Oc2ccnc3[nH]ccc23)cc1)C(=O)NC1CCOCC1 [Example 99, (S)-3-(4-((1H-pyrrolo[2,3-b]pyridin-4-yl)oxy)phenyl)-2-amino-N-(tetrahydro-2H-pyran-4-yl)propanamide]"
> 30 nM,> 30 nM,"N[C@H](Cc1ccc(Oc2ccnc3[nH]ccc23)cc1)C(=O)NC1CCOCC1 [Example 100, (R)-3-(4-((1H-pyrrolo[2,3-b]pyridin-4-yl)oxy)phenyl)-2-amino-N-(tetrahydro-2H-pyran-4-yl)propanamide]"
3 to 30 nM,3 to 30 nM,"CN(C(=O)[C@@H](N)Cc1ccc(Oc2ccnc3[nH]ccc23)cc1)C1CCCCC1 [Example 101, (S)-3-(4-((1H-pyrrolo[2,3-b]pyridin-4-yl)oxy)phenyl)-2-amino-N-cyclohexyl-N-methylpropanamide]"
> 30 nM,> 30 nM,"CN(C(=O)[C@H](N)Cc1ccc(Oc2ccnc3[nH]ccc23)cc1)C1CCCCC1 [Example 102, (R)-3-(4-((1H-pyrrolo[2,3-b]pyridin-4-yl)oxy)phenyl)-2-amino-N-eyclohexyl-N-methylpropanamide]"
3 to 30 nM,3 to 30 nM,"CN1CCC(NC(=O)[C@@H](N)Cc2ccc(Oc3ccnc4[nH]ccc34)cc2)CC1 [Example 103, (S)-3-(4-((1H-pyrrolo[2,3-b]pyridin-4-yl)oxy)phenyl)-2-amino-N-(1-methylpiperidin-4-yl)propanamide]"
> 30 nM,> 30 nM,"CN1CCC(NC(=O)[C@H](N)Cc2ccc(Oc3ccnc4[nH]ccc34)cc2)CC1 [Example 104, (R)-3-(4-((1H-pyrrolo[2,3-b]pyridin-4-yl)oxy)phenyl)-2-amino-N-(1-methylpiperidin-4-yl)propanamide]"
3 to 30 nM,3 to 30 nM,"N[C@@H](Cc1ccc(Oc2ccnc3[nH]ccc23)cc1)C(=O)Nc1nccs1 [Example 105, (S)-3-(4-((1H-pyrrolo[2,3-b]pyridin-4-yl)oxy)phenyl)-2-amino-N-(thiazol-2-yl)propanamide]"
> 30 nM,> 30 nM,"N[C@H](Cc1ccc(Oc2ccnc3[nH]ccc23)cc1)C(=O)Nc1nccs1 [Example 106, (R)-3-(4-((1H-pyrrolo[2,3-b]pyridin-4-yl)oxy)phenyl)-2-amino-N-(thiazol-2-yl)propanamide]"
< 3 nM,< 3 nM,"N[C@@H](Cc1ccc(Oc2ccnc3[nH]ccc23)cc1)C(=O)NCC1CCCCC1 [Example 107, (S)-3-(4-((1H-pyrrolo[2,3-b]pyridin-4-yl)oxy)phenyl)-2-amino-N-(cyclohexylmethyl)propanamide]"
3 to 30 nM,3 to 30 nM,"N[C@H](Cc1ccc(Oc2ccnc3[nH]ccc23)cc1)C(=O)NCC1CCCCC1 [Example 108, (R)-3-(4-((1H-pyrrolo[2,3-b]pyridin-4-yl)oxy)phenyl)-2-amino-N-(cyclohexylmethyl)propanamide]"
3 to 30 nM,3 to 30 nM,"N[C@@H](Cc1ccc(Oc2ccnc3[nH]ccc23)cc1)C(=O)Nc1ccccc1 [Example 109, (S)-3-(4-((1H-pyrrolo[2,3-b]pyridin-4-yl)oxy)phenyl)-2-amino-N-phenylpropanamide]"
> 30 nM,3 to 30 nM,"N[C@H](Cc1ccc(Oc2ccnc3[nH]ccc23)cc1)C(=O)Nc1ccccc1 [Example 110, (R)-3-(4-((1H-pyrrolo[2,3-b]pyridin-4-yl)oxy)phenyl)-2-amino-N-phenylpropanamide]"

Ki (Rho kinase 1 (ROCK-I)),Ki (Rho kinase 2 (ROCK-II)),Structure (SMILES)
3 to 30 nM,< 3 nM,"N[C@@H](Cc1ccc(Oc2ccnc3[nH]ccc23)cc1)C(=O)NC1CCCCC1 [Example 111, (S)-3-(4-((1H-pyrrolo[2,3-b]pyridin-4-yl)oxy)phenyl)-2-amino-N-cyclohexylpropanamide]"
> 30 nM,3 to 30 nM,"N[C@H](Cc1ccc(Oc2ccnc3[nH]ccc23)cc1)C(=O)NC1CCCCC1 [Example 112, (R)-3-(4-((1H-pyrrolo[2,3-b]pyridin-4-yl)oxy)phenyl)-2-amino-N-cyclohexylpropanamide]"
> 30 nM,3 to 30 nM,"CN(C)C(=O)C(N)Cc1ccc(Oc2ccnc3[nH]ccc23)cc1 (centres unmarked) [Example 113, 3-(4-((1H-pyrrolo[2,3-b]pyridin-4-yl)oxy)phenyl)-2-amino-N,N-dimethylpropanamide]"
< 3 nM,< 3 nM,"N[C@@H](Cc1ccc(Oc2ccnc3[nH]cc(F)c23)cc1)C(=O)N1CCN(Cc2ccccc2)CC1 [Example 114, (S)-2-amino-1-(4-benzylpiperazin-1-yl)-3-(4-((3-fluoro-1H-pyrrolo[2,3-b]pyridin-4-yl)oxy)phenyl)propan-1-one]"
< 3 nM,< 3 nM,"Cc1c[nH]c2ncnc(Oc3ccc(C[C@H](N)C(=O)N4CCN(Cc5ccccc5)CC4)cc3F)c12 [Example 115, (S)-2-amino-1-(4-benzylpiperazin-1-yl)-3-(3-fluoro-4-((5-methyl-7H-pyrrolo[2,3-d]pyrimidin-4-yl)oxy)phenyl)propan-1-one]"
3 to 30 nM,3 to 30 nM,"Cc1c[nH]c2ncnc(Oc3ccc(C[C@H](N)C(=O)NCCCN(C)C)cc3F)c12 [Example 116, (S)-2-amino-N-(3-(dimethylamino)propyl)-3-(3-fluoro-4-((5-methyl-7H-pyrrolo[2,3-d]pyrimidin-4-yl)oxy)phenyl)propanamide]"
3 to 30 nM,3 to 30 nM,"Cc1c[nH]c2ncnc(Oc3ccc(C[C@H](N)C(=O)NC4CCN(C)CC4)cc3F)c12 [Example 117, (S)-2-amino-3-(3-fluoro-4-((5-methyl-7H-pyrrolo[2,3-d]pyrimidin-4-yl)oxy)phenyl)-N-(1-methylpiperidin-4-yl)propanamide]"
3 to 30 nM,3 to 30 nM,"Cc1c[nH]c2ncnc(Oc3ccc(C[C@H](N)C(=O)N4CCN(C)CC4)cc3F)c12 [Example 118, (S)-2-amino-3-(3-fluoro-4-((5-methyl-7H-pyrrolo[2,3-d]pyrimidin-4-yl)oxy)phenyl)-1-(4-methylpiperazin-1-yl)propan-1-one]"
< 3 nM,< 3 nM,"Cc1c[nH]c2ncnc(Oc3ccc(C[C@H](N)C(=O)N4CCN(C5CC5)CC4)cc3F)c12 [Example 119, (S)-2-amino-1-(4-cyclopropylpiperazin-1-yl)-3-(3-fluoro-4-((5-methyl-7H-pyrrolo[2,3-d]pyrimidin-4-yl)oxy)phenyl)propan-1-one]"
3 to 30 nM,< 3 nM,"Cc1c[nH]c2ncnc(Oc3ccc(C[C@H](N)C(=O)N4CCN(Cc5ccccn5)CC4)cc3F)c12 [Example 120, (S)-2-amino-3-(3-fluoro-4-((5-methyl-7H-pyrrolo[2,3-d]pyrimidin-4-yl)oxy)phenyl)-1-(4-(pyridin-2-ylmethyl)piperazin-1-yl)propan-1-one]"
3 to 30 nM,3 to 30 nM,"Cc1c[nH]c2ncnc(Oc3ccc(C[C@H](N)C(=O)N4C[C@@H]5C[C@H]4CN5C)cc3F)c12 [Example 121, 2-amino-3-(3-fluoro-4-((5-methyl-7H-pyrrolo[2,3-d]pyrimidin-4-yl)oxy)phenyl)-1-((1S,4S)-5-methyl-2,5-diazabicyclo[2.2.1]heptan-2-yl)propan-1-one]"
3 to 30 nM,< 3 nM,"Cc1c[nH]c2ncnc(Oc3ccc(C[C@H](N)C(=O)N4CCC(c5ccncc5)CC4)cc3F)c12 [Example 122, (S)-2-amino-3-(3-fluoro-4-((5-methyl-7H-pyrrolo[2,3-d]pyrimidin-4-yl)oxy)phenyl)-1-(4-(pyridin-4-yl)piperidin-1-yl)propan-1-one]"
< 3 nM,< 3 nM,"Cc1c[nH]c2ncnc(Oc3ccc(C[C@H](N)C(=O)N4CCC(O)(Cc5ccccc5)CC4)cc3F)c12 [Example 123, (S)-2-amino-1-(4-benzyl-4-hydroxypiperidin-1-yl)-3-(3-fluoro-4-((5-methyl-7H-pyrrolo[2,3-d]pyrimidin-4-yl)oxy)phenyl)propan-1-one]"
< 3 nM,< 3 nM,"Cc1c[nH]c2ncnc(Oc3ccc(C[C@H](N)C(=O)N4CCc5ccccc5C4)cc3F)c12 [Example 124, (S)-2-amino-1-(3,4-dihydroisoquinolin-2(1H)-yl)-3-(3-fluoro-4-((5-methyl-7H-pyrrolo[2,3-d]pyrimidin-4-yl)oxy)phenyl)propan-1-one]"
3 to 30 nM,3 to 30 nM,"Cc1c[nH]c2ncnc(Oc3ccc(C[C@H](N)C(=O)NC4CCOCC4)cc3F)c12 [Example 125, (S)-2-amino-3-(3-fluoro-4-((5-methyl-7H-pyrrolo[2,3-d]pyrimidin-4-yl)oxy)phenyl)-N-(tetrahydro-2H-pyran-4-yl)propanamide]"

# — patent US10501461B2, “Tyrosine amide derivatives as Rho-kinase inhibitors” (CHIESI FARMACEUTICI S.P.A., priority 2017, dated 2019)
